What is called IC50 is the concentration that gives 50% inhibition.

The text below walks through data of article PMC11051198, “Synthesis and Late-Stage Modification of (−)-Doliculide Derivatives Using Matteson’s Homologation Approach” (Marine Drugs, 2024).

One data set has as its system HepG2. Nature of the data set: MTT cytotoxicity assay, HepG2. It is filed as cell-based. Particulars: HepG2 human hepatocellular carcinoma, 5 d incubation, 37 °C, 5% CO2, DMEM + 10% FBS, mean ± SD of two independent measurements. As for the experimental part: (§1) The cell cultures were cultivated at 37 °C under an atmosphere containing 5% CO2. Before usage, Dulbecco’s Modified Eagle Medium (DMEM) from Gibco (Thermo Fisher Scientific) was supplemented with 10% fetal bovine serum (FBS) from Gibco. Cells were used between passage 5 and 30 and were split separately for at least two passages to obtain biological repeats. Cells were washed with PBS and 0.5 mL trypsin was added before treatment. Cells were then incubated for 5 min before adding 10 mL medium containing 10% FBS. Per well, 120 µL cell suspension 5 × 10^4 cells/mL (CHO-K1, HCT-116. U-2 OS, KB3.1) or 1 × 10^5 cells/mL (HepG2) cells were seeded in transparent 96-well cell bind plate and incubated for 2 h at 37 °C and an atmosphere of 5% CO2. Each compound was tested in a serial dilution so that the starting concentration is 111 µg/mL, which is diluted by 1:3 as well as the internal solvent control prepared in DMEM with 10% FBS. After 5 d incubation at 37 °C and an atmosphere of 5% CO2, 20 μL of 5 mg/mL MTT (thiazolyl blue tetrazolium bromide) in PBS was added per well and cells were further incubated until coloration of the cells. The medium was then discarded and 100 μL 2-propanol/10 N HCl (250:1) added to the cells. The plates were analyzed by measuring the absorbance at 570 nm and 630 nm as reference using a microplate reader Infinite® 200 Pro from Tecan (Männedorf, Switzerland). Absorption is then converted to cell viability expressed as percentage relative to the respective solvent control. The calculated percentage of growth inhibition were determined by sigmoidal curve fitting using GraphPad (Boston, MA, USA) Prism software (version 10.0.2). Two independent measurements were generated for mean and standard deviation.
In general terms: Formazan colour is commonly taken as a measure of viable cells.

The subject of a further data set is CHO-K1. Briefly: MTT cytotoxicity assay, CHO-K1. Format: cell-based. Particulars: CHO-K1 mutagenized Chinese hamster ovary, 5 d incubation, 37 °C, 5% CO2, DMEM + 10% FBS, mean ± SD of two independent measurements. As for the experimental part:
as §1

The test system of a further data set is HCT-116. Nature of the data set: MTT cytotoxicity assay, HCT-116. Particulars: HCT-116 human colon carcinoma, 5 d incubation, 37 °C, 5% CO2, DMEM + 10% FBS, mean ± SD of two independent measurements. It is filed as cell-based. As for the experimental part:
as §1

The next data set concerns U-2 OS. Nature of the data set: MTT cytotoxicity assay, U-2 OS. Format: cell-based. Particulars: U-2 OS human bone osteosarcoma, 5 d incubation, 37 °C, 5% CO2, DMEM + 10% FBS, mean ± SD of two independent measurements. As for the experimental part:
as §1

The next data set deals with KB3.1. Nature of the data set: MTT cytotoxicity assay, KB3.1. It is filed as cell-based. Particulars: KB3.1 human epidermoid carcinoma cell line, 5 d incubation, 37 °C, 5% CO2, DMEM + 10% FBS, mean ± SD of two independent measurements. As for the experimental part: as §1
The subject of the next data set is HeLa-S3 cells. The note with it: ref [1]; cited from earlier work. As for the experimental part: Isolation of (−)-doliculide (Figure 1) from the Japanese sea hare, Dolabella auricularia, was first reported almost 30 years ago by Yamada et al., along with its potent cytotoxicity against HeLa-S3 cells (IC50 = 1 ng/mL). […] Due to their biological activities as anticancer agents, naturally derived cyclopeptides are interesting candidates for drug development, and so ...

Setting [1] is: ≤ values: individual results varied widely, given as a range.

Turning to `CC(C)[C@@H]1C[C@H](O)[C@H](C)C[C@H](C)C[C@H](C)C(=O)NCC(=O)N(C)[C@H](Cc2ccc(O)c(I)c2)C(=O)O1` [A, (−)-Doliculide], the IC50 in the data set with HepG2 came to 16.4 ± 4.2 nM; in the data set on CHO-K1, 111 ± 4.5 nM; in the data set on HCT-116 (setting [1]), 8.8 ± 0.5 nM; in the data set with U-2 OS (setting [1]), 25.2 ± 1.8 nM; in the data set with KB3.1 (setting [1]), 38 ± 9.9 nM. Further, in the data set with HeLa-S3 cells, the “cytotoxicity against HeLa-S3 cells, IC50” value is 1 ng/mL.
`C[C@H]1C[C@@H](C)[C@@H](O)C[C@@H](Cc2cn(CCOCCOCC(=O)O)nn2)OC(=O)[C@@H](Cc2ccc(O)c(I)c2)N(C)C(=O)CNC(=O)[C@@H](C)C1` [Compound 9d, 2-{2-[2-(4-{[(3R,9S,11S,13R,14S,16R)-14-Hydroxy-3-(4-hydroxy-3-iodobenzyl)-4,9,11,13-tetramethyl-2,5,8-trioxo-1-oxa-4,7-diazacyclohexadecan-16-yl]methyl}-1H-1,2,3-triazol-1-yl)ethoxy]ethoxy}acetic Acid]: the IC50 with HepG2, in the data set with CHO-K1, in the data set on HCT-116, in the data set with U-2 OS and with KB3.1 was greater than 46200 nM in each case.
`C#CC[C@@H]1C[C@H](O)[C@H](C)C[C@H](C)C[C@H](C)C(=O)NCC(=O)N(C)[C@H](Cc2ccc(O)c(I)c2)C(=O)O1` [Compound 8c, (3R,9S,11S,13R,14S,16R)-14-Hydroxy-3-(4-hydroxy-3-iodobenzyl)-4,9,11,13-tetramethyl-16-(prop-2-yn-1-yl)-1-oxa-4,7-diazacyclohexadecane-2,5,8-trione]: the IC50 stood at 147 ± 65 nM in the data set on HepG2; 474 ± 147 nM with CHO-K1; 65 ± 16 nM in the data set with HCT-116 (setting [1]); 49 ± 33 nM in the data set on U-2 OS (setting [1]); 114 ± 49 nM with KB3.1 (setting [1]).
On to `CCOC(=O)CCSCCC[C@@H]1C[C@H](O)[C@H](C)C[C@H](C)C[C@H](C)C(=O)NCC(=O)N(C)[C@H](Cc2ccc(O)c(I)c2)C(=O)O1` [Compound 11d, Ethyl 3-({3-[(3R,9S,11S,13R,14S,16R)-14-hydroxy-3-(4-hydroxy-3-iodobenzyl)-4,9,11,13-tetramethyl-2,5,8-trioxo-1-oxa-4,7-diazacyclohexadecan-16-yl]propyl}-thio)propanoate], for which the IC50 with HepG2 is greater than 49400 nM; in the data set on CHO-K1 it was 9840 ± 3870 nM; in the data set with HCT-116 (setting [1]), 60 ± 13 nM; in the data set with U-2 OS it was 4900 ± 3870 nM; in the data set with KB3.1 it was 3930 ± 1140 nM.
Consider `C=CC[C@@H]1C[C@H](O)[C@H](C)C[C@H](C)C[C@H](C)C(=O)NCC(=O)N(C)[C@H](Cc2ccc(O)c(I)c2)C(=O)O1` [Compound 8b, (3R,9S,11S,13R,14S,16R)-16-Allyl-14-hydroxy-3-(4-hydroxy-3-iodobenzyl)-4,9,11,13-tetramethyl-1-oxa-4,7-diazacyclohexadecane-2,5,8-trione], for which the IC50 in the data set on HepG2 was greater than 60200 nM; in the data set with CHO-K1, 264 ± 13 nM; in the data set with HCT-116 (setting [1]) it was 16 ± 8 nM; with U-2 OS (setting [1]), 521 ± 488 nM; with KB3.1 (setting [1]), 103 ± 65 nM.
